The source of these data is ChEMBL document CHEMBL1201862, “PubChem BioAssay data set” (2004).

Among the test systems are A498; CAKI-1; EKVX; HCT-116; HL-60; KM12; MCF7; MDA-N; NCI-H226; OVCAR-3; RPMI-8226; SK-MEL-5; SNB-19; SNB-75; SW-620; UACC-62; CCRF-CEM; NCI-H23; OVCAR-8; Hs-578T.
Holding throughout (experiment): NCI tumour cell line growth inhibition, 48 h

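Protocol summary: plate cells (96-well), add compound at 5 concentrations, incubate 48 h, interpolate endpoints linearly. The concentration for 50% growth inhibition is given as GI50.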 Activity calls are given as the source filed them. Rule as the data show it: active = GI50 up to about 1.1 µM and inactive = higher.

Regarding `CC(C)CC(O)P(=O)(O)O.NC1CCCCC1` (configuration not stated), the GI50 in the assay with A498, in the assay on CAKI-1, with EKVX, in the assay on HCT-116, in the assay with HL-60 and with KM12 was > 100 µM (inactive) throughout. Besides, the GI50 in the assay with MCF7, with MDA-N, in the assay with NCI-H226, with OVCAR-3, in the assay with RPMI-8226 and in the assay on SK-MEL-5 was > 100 µM (inactive) throughout. Further, the GI50 in the assay with SNB-19, with SNB-75, with SW-620 and in the assay with UACC-62 was > 100 µM (inactive) throughout.

As for `COP(=O)(OC)C(O)CC(C)C` (configuration not stated), the GI50 in the assay on A498, with CAKI-1, with EKVX, in the assay with HCT-116, in the assay on HL-60 and in the assay with KM12 was > 100 µM (inactive) each time. For the same molecule, the GI50 in the assay on MCF7, with MDA-N, with NCI-H226, in the assay with OVCAR-3, in the assay with RPMI-8226 and with SK-MEL-5 was > 100 µM (inactive) each time. For the same molecule, the GI50 with SNB-19, in the assay on SNB-75, in the assay with SW-620 and in the assay on UACC-62 was > 100 µM (inactive) throughout.

Consider `S=c1[nH]n2c(CCCCCCCCc3nnc4sc(=S)[nH]n34)nnc2s1`, for which the GI50 was > 100 µM (inactive) with A498; > 100 µM (inactive) in the assay on CAKI-1; 83 µM (inactive) with CCRF-CEM; > 100 µM (inactive) in the assay with EKVX; > 100 µM (inactive) in the assay on HCT-116; > 100 µM (inactive) in the assay on HL-60. The GI50 with KM12, in the assay with MCF7, with MDA-N, with NCI-H226, in the assay on NCI-H23 and in the assay with OVCAR-3 was > 100 µM (inactive) each time. Moreover, the GI50 in the assay with OVCAR-8, with RPMI-8226, with SNB-19, with SNB-75, with SW-620 and in the assay with UACC-62 was > 100 µM (inactive) throughout.

As for `CC(=O)c1c[nH]cc1CO`, the GI50 in the assay with A498, with CAKI-1, in the assay on CCRF-CEM, in the assay with HCT-116, in the assay with HL-60 and with KM12 was > 10 µM (inactive) each time. In addition, the GI50 with MCF7, in the assay with MDA-N, in the assay on NCI-H226, with NCI-H23, with OVCAR-3 and with OVCAR-8 was > 10 µM (inactive) in each case. Moreover, the GI50 with RPMI-8226, in the assay on SK-MEL-5, in the assay on SNB-19, in the assay on SNB-75 and in the assay on SW-620 was > 10 µM (inactive) throughout.

For the molecule `Cc1c(-c2ccccc2)nn2cc(-c3ccccc3)nnc12`, the GI50 was 56.6 µM (inactive) in the assay with A498; 45.7 µM (inactive) in the assay with CAKI-1; 27.4 µM (inactive) in the assay with CCRF-CEM; 20.7 µM (inactive) in the assay on HCT-116; 25.2 µM (inactive) in the assay on Hs-578T; 29 µM (inactive) in the assay on KM12. For the same molecule, the GI50 with MDA-N is 19.7 µM (inactive); in the assay on NCI-H226 it was 21.2 µM (inactive); with NCI-H23, 31.9 µM (inactive); in the assay on OVCAR-3 it was 32.7 µM (inactive); with OVCAR-8, 67.3 µM (inactive); in the assay on RPMI-8226 it was 35.5 µM (inactive). Further, the GI50 is 16.3 µM (inactive) in the assay with SK-MEL-5; 40.8 µM (inactive) in the assay with SNB-19; 20.7 µM (inactive) in the assay on SNB-75; 23 µM (inactive) in the assay with SW-620; 17.9 µM (inactive) in the assay on UACC-62.

Turning to `COC(=O)C1=C(CCCCO[Si](C)(C)C(C)(C)C)NC(=O)N2[C@@H](CCOCc3ccccc3)CC[C@H]12`, the GI50 with A498 is 53 µM (inactive); in the assay with CAKI-1, 16.8 µM (inactive); with CCRF-CEM, 17.9 µM (inactive); with EKVX, 15.8 µM (inactive); in the assay with HCT-116, 10.9 µM (inactive); in the assay with KM12, 18.3 µM (inactive). Besides, the GI50 with MCF7 is 27 µM (inactive); in the assay on MDA-N, 17.6 µM (inactive); in the assay with NCI-H23, 7.98 µM (inactive); in the assay with OVCAR-3 it was 13.4 µM (inactive); in the assay on RPMI-8226, 23.4 µM (inactive); in the assay with SK-MEL-5, 10.3 µM (inactive). Further, the GI50 in the assay with SNB-19 is 23.6 µM (inactive); in the assay on SNB-75 it was 25.2 µM (inactive); in the assay on UACC-62, 24.3 µM (inactive).

Consider `CN1c2ccccc2C(=O)Nc2cnc(Cl)nc21`, for which the GI50 with A498 is 73.6 µM (inactive); with CAKI-1, > 100 µM (inactive); in the assay with CCRF-CEM, > 100 µM (inactive); in the assay with EKVX, > 100 µM (inactive); with HCT-116 it was > 100 µM (inactive); in the assay with HL-60 it was > 100 µM (inactive). Also, the GI50 in the assay with KM12, in the assay with MCF7, with MDA-N, in the assay on NCI-H226, with NCI-H23 and in the assay with OVCAR-3 was > 100 µM (inactive) throughout. Further, the GI50 in the assay on OVCAR-8 is 65.2 µM (inactive); in the assay on RPMI-8226 it was > 100 µM (inactive); with SK-MEL-5, > 100 µM (inactive); in the assay with SNB-19 it was 36.6 µM (inactive); in the assay on SNB-75 it was 39.2 µM (inactive); in the assay on SW-620 it was > 100 µM (inactive). The GI50 with UACC-62 was > 100 µM (inactive).

With `CN(C)Cc1c(O)ccc2c1c1c(n2C)C(=O)c2ccccc2C1=O`, the GI50 with A498 is 4.43 µM (inactive); with CAKI-1, 4.52 µM (inactive); in the assay with CCRF-CEM, 0.492 µM (active); in the assay on EKVX it was 13.5 µM (inactive); with HCT-116, 9.95 µM (inactive); with HL-60, 7.38 µM (inactive). In addition, the GI50 in the assay on Hs-578T was 18.7 µM (inactive); in the assay with KM12, 3.2 µM (inactive); with MCF7, 5.86 µM (inactive); with NCI-H226, 11 µM (inactive); in the assay with NCI-H23 it was 5.12 µM (inactive); in the assay on OVCAR-3, 4.75 µM (inactive). The GI50 with OVCAR-8 was 5.46 µM (inactive); with RPMI-8226, 2.67 µM (inactive); in the assay on SK-MEL-5 it was 6.49 µM (inactive); in the assay on SNB-19, 6.19 µM (inactive); in the assay on SNB-75, 12.3 µM (inactive); with SW-620, 4.72 µM (inactive). In addition, the GI50 with UACC-62 is 3.55 µM (inactive).

On to `Clc1ncnc(Cl)c1Cl`, for which the GI50 with CAKI-1, in the assay with CCRF-CEM, in the assay on HCT-116, with Hs-578T, in the assay on KM12 and with MCF7 was > 100 µM (inactive) throughout. The GI50 with MDA-N is > 100 µM (inactive); in the assay on NCI-H226, > 100 µM (inactive); with NCI-H23 it was > 100 µM (inactive); with OVCAR-3 it was > 100 µM (inactive); in the assay with OVCAR-8 it was > 100 µM (inactive); with RPMI-8226, 4.41 µM (inactive). Also, the GI50 in the assay with SK-MEL-5, in the assay on SNB-19, in the assay with SNB-75, with SW-620 and with UACC-62 was > 100 µM (inactive) in each case.

With `C/C(=N\NC(=O)c1ccncc1)c1cccc(F)c1`, the GI50 in the assay on A498, in the assay on CAKI-1, in the assay with CCRF-CEM, in the assay with HCT-116, with HL-60 and in the assay with KM12 was > 10 µM (inactive) in each case. The GI50 in the assay on MCF7, with MDA-N, with NCI-H226, in the assay on NCI-H23, in the assay with OVCAR-3 and in the assay on OVCAR-8 was > 10 µM (inactive) each time. The GI50 in the assay on RPMI-8226, in the assay on SK-MEL-5, in the assay on SNB-19, in the assay with SNB-75 and with SW-620 was > 10 µM (inactive) each time.

In the case of `O=C1c2ccccc2CC12CCC1(CC2)OCCO1`, the GI50 with CAKI-1, in the assay on CCRF-CEM, in the assay with EKVX, in the assay on HCT-116, with HL-60 and with Hs-578T was > 100 µM (inactive) in each case. Also, the GI50 with KM12, in the assay with MCF7, in the assay on MDA-N, in the assay on NCI-H226, in the assay with NCI-H23 and in the assay on OVCAR-8 was > 100 µM (inactive) each time. Besides, the GI50 with RPMI-8226 is > 100 µM (inactive); with SK-MEL-5 it was > 10 µM (inactive); with SNB-19, > 100 µM (inactive); in the assay on SNB-75, > 100 µM (inactive); with SW-620 it was > 100 µM (inactive); in the assay with UACC-62, > 100 µM (inactive).

`CCOC(=O)C(C)c1nc2cc3cccnc3c(Cl)c2[nH]c1=O` (configuration not stated): the GI50 in the assay on A498, in the assay with CAKI-1, in the assay with CCRF-CEM, with EKVX, in the assay on HCT-116 and with HL-60 was > 100 µM (inactive) throughout. Further, the GI50 in the assay on Hs-578T was 54.1 µM (inactive); in the assay on KM12 it was > 100 µM (inactive); with MCF7, > 100 µM (inactive); in the assay on NCI-H226 it was > 100 µM (inactive); in the assay with NCI-H23, > 100 µM (inactive); in the assay on OVCAR-8, > 100 µM (inactive). The GI50 in the assay with RPMI-8226 is 25.9 µM (inactive); in the assay on SK-MEL-5, > 100 µM (inactive); in the assay with SNB-19 it was > 100 µM (inactive); in the assay on SNB-75, > 100 µM (inactive); with SW-620, > 100 µM (inactive); in the assay with UACC-62, > 100 µM (inactive).
